The results in this text go back to patent US10155259B2 (Merck Sharp & Dohme B.V., priority 2011, dated 2018).

Molecules are shown by their SMILES.

In the assay the target is T1, human FSH receptor (Homo sapiens, UniProt P23945).
T1 construct: expressed in transfected cells; host or cells: CHO cells, stably transfected; cotransfected with CRE-luciferase reporter
T1 sequence (P23945 18-695): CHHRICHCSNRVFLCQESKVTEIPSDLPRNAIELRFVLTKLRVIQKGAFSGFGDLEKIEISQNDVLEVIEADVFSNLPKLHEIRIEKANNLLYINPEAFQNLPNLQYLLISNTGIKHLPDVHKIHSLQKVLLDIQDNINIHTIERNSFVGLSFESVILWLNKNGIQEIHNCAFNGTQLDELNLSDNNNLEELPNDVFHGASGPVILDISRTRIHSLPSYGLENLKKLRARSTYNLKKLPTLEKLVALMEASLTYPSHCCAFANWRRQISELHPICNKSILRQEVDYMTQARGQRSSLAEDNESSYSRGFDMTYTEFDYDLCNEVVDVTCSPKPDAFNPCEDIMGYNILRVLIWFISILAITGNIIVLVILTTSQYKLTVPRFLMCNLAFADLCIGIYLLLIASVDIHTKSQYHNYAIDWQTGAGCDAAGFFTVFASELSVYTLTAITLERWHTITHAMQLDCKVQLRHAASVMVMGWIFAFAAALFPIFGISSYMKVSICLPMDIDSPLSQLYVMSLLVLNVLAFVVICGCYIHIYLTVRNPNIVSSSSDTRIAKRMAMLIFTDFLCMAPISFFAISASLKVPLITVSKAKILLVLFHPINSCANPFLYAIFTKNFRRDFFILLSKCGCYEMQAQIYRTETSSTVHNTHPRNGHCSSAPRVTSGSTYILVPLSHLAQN
The assay can be described thus: Antagonistic activity of compounds at the human FSH receptor expressed in CHO cells (CRE-luciferase reporter). It counts as cell-based. The settings on record: CHO cells stably transfected with human FSH receptor and CRE/luciferase reporter; together with 49 μM recFSH; 4 hours incubation; 1% DMSO; read-out: IC50 (concentration of test compound causing half-maximal inhibition of the maximally attainable inhibition of the luciferase stimulation). As to the method: Antagonistic Activity of Compounds at the Human FSH Receptor Expressed in CHO Cells
Antagonistic activity of the compounds at the human FSH receptor was determined in Chinese Hamster Ovary (CHO) cells stably transfected with the human FSH receptor and cotransfected with a cAMP responsive element (CRE)/promotor directing the expression of a firefly luciferase reporter gene. Binding of the compounds to the Gs protein-coupled FSH receptor will result in an increase of cAMP, which in turn will induce an increased transactivation of the luciferase reporter. The cells (7,500 cells/well of a 384 well plate) were incubated in Dulbecco' minimal essential F12 modified medium (Invitrogen), supplemented with 1 μg/ml bovine insulin, 5 μg/ml human apo-transferrin, 100 U/ml penicillin G and 100 μg/ml streptomycin with the test compounds (concentration between 0.316 nM and 10.0 μM) in duplicate together with […] (which, at this concentration in the absence of test compound, induces 80% of the maximal luciferase stimulation) in a humidified atmosphere (95%) at 5-7% CO2 and 37° C. The final concentration of DMSO was 1%. After 4 hours of incubation, plates were allowed to adjust to room temperature for 1 hour. Then, SteadyLite (PerkinElmer) solution was added to the wells and cells were allowed to lyse for at least 1 hour at room temperature. Subsequently, luciferase activity was measured in a luminescence counter. The signal is expressed as counts per second (cps). The IC50 (concentration of test compound causing half-maximal (50%) inhibition of the maximally attainable inhibition of the luciferase stimulation by the compound) and efficacy of the compounds were determined using the software program MathIQ (version 2.3, ID Business Solutions Limited).
As to `CCCC(=O)c1c(C(=O)N[C@@H](CO)Cc2c[nH]c3ccccc23)cc2n1CCc1cc(OC)c(OC(C)C)cc1-2` [Example 26, (R)-3-butyryl-N-(1-hydroxy-3-(1H-indol-3-yl)propan-2-yl)-9-isopropoxy-8-methoxy-5,6-dihydropyrrolo[2,1-a]isoquinoline-2-carboxamide], the IC50 is less than 100 nM.
Take `COc1cc2c(cc1OC(C)C)-c1cc(C(=O)N[C@@H](CO)Cc3c[nH]c4ccccc34)c(C(=O)C3CC3)n1CC2` [Example 27, (R)-3-(cyclopropanecarbonyl)-N-(1-hydroxy-3-(1H-indol-3-yl)propan-2-yl)-9-isopropoxy-8-methoxy-5,6-dihydropyrrolo[2,1-a]isoquinoline-2-carboxamide]: the IC50 is less than 100 nM.
The value for `COc1cc2c(cc1OC(C)C)-c1cc(C(=O)N[C@@H](CO)Cc3c[nH]c4ccccc34)c(C(=O)c3cccs3)n1CC2` [Example 28, (R)—N-(1-hydroxy-3-(1H-indol-3-yl)propan-2-yl)-9-isopropoxy-8-methoxy-3-(thiophene-2-carbonyl)-5,6-dihydropyrrolo[2,1-a]isoquinoline-2-carboxamide] was less than 100 nM; that for `COc1cc2c(cc1OC(C)C)-c1cc(C(=O)N[C@@H](CO)Cc3c[nH]c4ccccc34)c(C(=O)c3ccccc3)n1CC2` [Example 29, (R)-3-benzoyl-N-(1-hydroxy-3-(1H-indol-3-yl)propan-2-yl)-9-isopropoxy-8-methoxy-5,6-dihydropyrrolo[2,1-a]isoquinoline-2-carboxamide] was less than 100 nM.
The value for `CC(C)Oc1cc2c(cc1OC(C)C)-c1cc(C(=O)N[C@@H](CO)Cc3c[nH]c4ccccc34)c(-c3ccccc3)n1CC2` [Example 30, (R)—N-(1-hydroxy-3-(1H-indol-3-yl)propan-2-yl)-8,9-diisopropoxy-3-phenyl-5,6-dihydropyrrolo[2,1-a]isoquinoline-2-carboxamide] was 100 to 1000 nM.
To `COc1cc2c(cc1O)-c1cc(C(=O)N[C@@H](CO)Cc3c[nH]c4ccccc34)c(-c3cccc(F)c3)n1CC2` [Example 31, (R)-3-(3-fluorophenyl)-9-hydroxy-N-(1-hydroxy-3-(1H-indol-3-yl)propan-2-yl)-8-methoxy-5,6-dihydropyrrolo[2,1-a]isoquinoline-2-carboxamide] belongs 100 to 1000 nM; to `C=CCOc1cc2c(cc1OC)CCn1c-2cc(C(=O)N[C@@H](CO)Cc2c[nH]c3ccccc23)c1-c1cccc(F)c1` [Example 32, (R)-9-(allyloxy)-3-(3-fluorophenyl)-N-(1-hydroxy-3-(1H-indol-3-yl)propan-2-yl)-8-methoxy-5,6-dihydropyrrolo[2,1-a]isoquinoline-2-carboxamide], 100 to 1000 nM; to `COCCOc1cc2c(cc1OC)CCn1c-2cc(C(=O)N[C@@H](CO)Cc2c[nH]c3ccccc23)c1-c1cccc(F)c1` [Example 33, (R)-3-(3-fluorophenyl)-N-(1-hydroxy-3-(1H-indol-3-yl)propan-2-yl)-8-methoxy-9-(2-methoxyethoxy)-5,6-dihydropyrrolo[2,1-a]isoquinoline-2-carboxamide], less than 100 nM.
As for `COc1cc2c(cc1OCc1ccccc1)-c1cc(C(=O)N[C@@H](CO)Cc3c[nH]c4ccccc34)c(-c3cccc(F)c3)n1CC2` [Example 34, (R)-9-(benzyloxy)-3-(3-fluorophenyl)-N-(1-hydroxy-3-(1H-indol-3-yl)propan-2-yl)-8-methoxy-5,6-dihydropyrrolo[2,1-a]isoquinoline-2-carboxamide], the IC50 was less than 100 nM.
To `COc1cc2c(cc1OC1CCCC1)-c1cc(C(=O)N[C@@H](CO)Cc3c[nH]c4ccccc34)c(-c3cccc(F)c3)n1CC2` [Example 35] belongs less than 100 nM.
In the case of `COc1cc2c(cc1OCC1CC1)-c1cc(C(=O)N[C@@H](CO)Cc3c[nH]c4ccccc34)c(-c3cccc(F)c3)n1CC2` [Example 36, (R)-9-(cyclopropylmethoxy)-3-(3-fluorophenyl)-N-(1-hydroxy-3-(1H-indol-3-yl)propan-2-yl)-8-methoxy-5,6-dihydropyrrolo[2,1-a]isoquinoline-2-carboxamide], the IC50 is less than 100 nM.
The value for `CCCC(C)Oc1cc2c(cc1OC)CCn1c-2cc(C(=O)N[C@@H](CO)Cc2c[nH]c3ccccc23)c1-c1cccc(F)c1` (stereo partly drawn) [Example 37, 3-(3-fluorophenyl)-N—((R)-1-hydroxy-3-(1H-indol-3-yl)propan-2-yl)-8-methoxy-9-(pentan-2-yloxy)-5,6-dihydropyrrolo[2,1-a]isoquinoline-2-carboxamide] was less than 100 nM.
To `COc1cc2c(cc1OCCO)-c1cc(C(=O)N[C@@H](CO)Cc3c[nH]c4ccccc34)c(-c3cccc(F)c3)n1CC2` [Example 38, (R)-3-(3-fluorophenyl)-N-(1-hydroxy-3-(1H-indol-3-yl)propan-2-yl)-9-(2-hydroxyethoxy)-8-methoxy-5,6-dihydropyrrolo[2,1-a]isoquinoline-2-carboxamide] belongs less than 100 nM; to `COc1cc2c(cc1OCCN(C)C)-c1cc(C(=O)N[C@@H](CO)Cc3c[nH]c4ccccc34)c(-c3cccc(F)c3)n1CC2` [Example 39, (R)-9-(2-(dimethylamino)ethoxy)-3-(3-fluorophenyl)-N-(1-hydroxy-3-(1H-indol-3-yl)propan-2-yl)-8-methoxy-5,6-dihydropyrrolo[2,1-a]isoquinoline-2-carboxamide], 100 to 1000 nM.
To `COc1cc2c(cc1OCC(O)CO)-c1cc(C(=O)N[C@@H](CO)Cc3c[nH]c4ccccc34)c(-c3cccs3)n1CC2` (stereo partly drawn) [Example 40, 9-(2,3-dihydroxypropoxy)-N—((R)-1-hydroxy-3-(1H-indol-3-yl)propan-2-yl)-8-methoxy-3-(thiophen-2-yl)-5,6-dihydropyrrolo[2,1-a]isoquinoline-2-carboxamide] belongs less than 100 nM; to `C=CCOc1cc2c(cc1OC)CCn1c-2cc(C(=O)N[C@@H](CO)Cc2c[nH]c3ccccc23)c1-c1cccs1` [Example 41], less than 100 nM; to `COc1cc2c(cc1-c1cccnc1)-c1cc(C(=O)N[C@@H](CO)Cc3c[nH]c4ccccc34)c(-c3cccc(F)c3)n1CC2` [Example 42, (R)-3-(3-fluorophenyl)-N-(1-hydroxy-3-(1H-indol-3-yl)propan-2-yl)-8-methoxy-9-(pyridin-3-yl)-5,6-dihydropyrrolo[2,1-a]isoquinoline-2-carboxamide], less than 100 nM.
As to `CCc1cc2c(cc1OC)CCn1c-2cc(C(=O)N[C@@H](CO)Cc2c[nH]c3ccccc23)c1-c1cccc(F)c1` [Example 43, (R)-9-ethyl-3-(3-fluorophenyl)-N-(1-hydroxy-3-(1H-indol-3-yl)propan-2-yl)-8-methoxy-5,6-dihydropyrrolo[2,1-a]isoquinoline-2-carboxamide], the IC50 is less than 100 nM.
The value for `COc1cc2c(cc1C(C)C(C)C)-c1cc(C(=O)N[C@@H](CO)Cc3c[nH]c4ccccc34)c(-c3cccc(F)c3)n1CC2` (stereo partly drawn) [Example 44, 3-(3-fluorophenyl)-N—((R)-1-hydroxy-3-(1H-indol-3-yl)propan-2-yl)-8-methoxy-9-(3-methylbutan-2-yl)-5,6-dihydropyrrolo[2,1-a]isoquinoline-2-carboxamide] was less than 100 nM.
To `COc1cc2c(cc1C=C(C)C)-c1cc(C(=O)N[C@@H](CO)Cc3c[nH]c4ccccc34)c(-c3cccc(F)c3)n1CC2` [Example 45, (R)-3-(3-fluorophenyl)-N-(1-hydroxy-3-(1H-indol-3-yl)propan-2-yl)-8-methoxy-9-(2-methylprop-1-enyl)-5,6-dihydropyrrolo[2,1-a]isoquinoline-2-carboxamide] belongs less than 100 nM; to `COc1cc2c(cc1C(C)=C(C)C)-c1cc(C(=O)N[C@@H](CO)Cc3c[nH]c4ccccc34)c(-c3cccc(F)c3)n1CC2` [Example 46, (R)-3-(3-fluorophenyl)-N-(1-hydroxy-3-(1H-indol-3-yl)propan-2-yl)-8-methoxy-9-(3-methylbut-2-en-2-yl)-5,6-dihydropyrrolo[2,1-a]isoquinoline-2-carboxamide], 100 to 1000 nM.
